In brackets after ≈: the same amount, converted by molar mass.
Legend:
[1] = tested on: Proteus mirabilis; test: in vitro antibacterial activity, minimum inhibitory concentration (M.I.C.), agar plates; type: cell-based; details: 24 hours at 37° C.
Description: (§1) The in vitro evaluation of the compounds of the invention as antibacterial agents has been performed by determining the minimum inhibitory concentration (M.I.C.) of the test compound in a suitable medium at which growth of the particular micro-organism fails to occur. In practice, agar plates, each having incorporated therein the test compound at a particular concentration are inoculated with a standard number of cells of the test micro-organism and each plate is then incubated for 24 hours at 37° C. The plates are then observed for the presence or absence of the growth of bacteria and the appropriate M.I.C. value noted. Micro-organisms used in such tests having included strains of Escherichia coli, Klebsiella pneumoniae, Proteus mirabilis, Pseudomonas aeruginosa, Staphylococcus aureus and Streptococcus faecalis. Results of the testing of several of the compounds of this invention for their in vitro antibacterial activity, by the method described hereinbefore, are presented in Table I.

[2] = tested on: Pseudomonas aeruginosa; test: as above; type: cell-based; details: 24 hours at 37° C., read-out: MIC Pseud. aeruginosa
Description: as §1

[3] = tested on: Klebsiella pneumoniae; test: as above; type: cell-based; details: 24 hours at 37° C., read-out: MIC Kleb. pneumoniae
Description: as §1

[4] = tested on: Escherichia coli; test: as above; type: cell-based; details: 24 hours at 37° C., read-out: MIC Esch. coli
Description: as §1

[5] = tested on: Staphylococcus aureus; test: as above; type: cell-based; details: 24 hours at 37° C., read-out: MIC Staph. aureus
Description: as §1

[6] = tested on: E. coli; test: in vivo antibacterial activity against E. coli in mice, 50% protection against lethal effect; details: Escherichia coli, sc, subcutaneous, 50% protection over 72 hours, read-out: PD50
Description: Each compound is administered at a series of dosage levels to groups of mice and its activity is determined as the level at which it gives 50% protection, against the lethal effect of the Escherichia coli organism over a period of 72 hours.
The in vivo antibacterial activity of 1-N-[(S)-4-amino-2-hydroxybutyl]kanamycin A against E. coli in mice has been measured.

MIC [1] [µg/mL]	MIC [2] [µg/mL]	MIC [3] [µg/mL]	MIC [4] [µg/mL]	MIC [5] [µg/mL]	SMILES	ED50 [6] [mg/kg]
12.5 (≈ 22.4 µM)	3.1 (≈ 5.56 µM)	6.2 (≈ 11.1 µM)	12.5 (≈ 22.4 µM)	3.1 (≈ 5.56 µM)	NCC(O)CN[C@@H]1C[C@H](N)[C@@H](O[C@H]2O[C@H](CN)[C@@H](O)[C@H](O)[C@H]2O)[C@H](O)[C@H]1O[C@H]1O[C@H](CO)[C@@H](O)[C@H](N)[C@H]1O (stereo partly drawn) [1-N-[3-amino-2-hydroxypropyl]kanamycin, 1-N-[3-Amino-2-hydroxpropyl]kanamycin A]	–
6.2 (≈ 10.9 µM)	0.8 (≈ 1.4 µM)	1.6 (≈ 2.8 µM)	3.1 (≈ 5.43 µM)	1.6 (≈ 2.8 µM)	NCC[C@H](O)CN[C@@H]1C[C@H](N)[C@@H](O[C@H]2O[C@H](CN)[C@@H](O)[C@H](O)[C@H]2N)[C@H](O)[C@H]1O[C@H]1O[C@H](CO)[C@@H](O)[C@H](N)[C@H]1O [1-N-[(S)-4-Amino-2-hydroxybutyl]kanamycin B]	–
25 (≈ 46.2 µM)	12.5 (≈ 23.1 µM)	6.2 (≈ 11.4 µM)	6.2 (≈ 11.4 µM)	12.5 (≈ 23.1 µM)	NCC[C@H](O)CN[C@@H]1C[C@H](N)[C@@H](O[C@H]2O[C@H](CN)[C@@H](O)[C@H](O)[C@H]2N)[C@H](O[C@@H]2O[C@H](CO)[C@@H](O)[C@H]2O)[C@H]1O [1-N-[(S)-4-Amino-2-hydroxybutyl]ribostamycin]	–
12.5 (≈ 21.3 µM)	3.1 (≈ 5.29 µM)	3.1 (≈ 5.29 µM)	6.2 (≈ 10.6 µM)	1.6 (≈ 2.73 µM)	NCCC[C@H](O)CN[C@@H]1C[C@H](N)[C@@H](O[C@H]2O[C@H](CN)[C@@H](O)[C@H](O)[C@H]2O)[C@H](O)[C@H]1O[C@H]1O[C@H](CO)[C@@H](O)[C@H](N)[C@H]1O [1-N-[(S)-5-Amino-2-hydroxypentyl]kanamycin A]	–
3.1 (≈ 5.17 µM)	3.1 (≈ 5.17 µM)	6.2 (≈ 10.3 µM)	6.2 (≈ 10.3 µM)	1.6 (≈ 2.67 µM)	NCCCC[C@H](O)CN[C@@H]1C[C@H](N)[C@@H](O[C@H]2O[C@H](CN)[C@@H](O)[C@H](O)[C@H]2O)[C@H](O)[C@H]1O[C@H]1O[C@H](CO)[C@@H](O)[C@H](N)[C@H]1O [1-N-[(S)-6-Amino-2-hydroxyhexyl]-kanamycin A]	–
6.2 (≈ 10.6 µM)	3.1 (≈ 5.29 µM)	3.1 (≈ 5.29 µM)	6.2 (≈ 10.6 µM)	3.1 (≈ 5.29 µM)	CNC[C@H]1O[C@H](O[C@H]2[C@H](O)[C@@H](O[C@H]3O[C@H](CO)[C@@H](O)[C@H](N)[C@H]3O)[C@H](NC[C@@H](O)CCN)C[C@@H]2N)[C@H](O)[C@@H](O)[C@@H]1O [6'-N-Methyl-1-N-[(S)-4-amino-2-hydroxybutyl]kanamycin A]	–

SMILES	MIC [1] [µg/mL]	MIC [2] [µg/mL]	MIC [3] [µg/mL]	MIC [4] [µg/mL]	MIC [5] [µg/mL]	ED50 [6] [mg/kg]
NCC[C@H](O)CN[C@@H]1C[C@H](N)[C@@H](O[C@H]2O[C@H](CN)[C@@H](O)[C@H](O)[C@H]2O)[C@H](O)[C@H]1O[C@H]1O[C@H](CO)[C@@H](O)[C@H](N)[C@H]1O [1-N-[(S)-4-Amino-2-hydroxybutyl]kanamycin A]	3.1 (≈ 5.42 µM)	1.6 (≈ 2.8 µM)	3.1 (≈ 5.42 µM)	6.2 (≈ 10.8 µM)	1.6 (≈ 2.8 µM)	3.8

— patent US4217446A, “ωAmino-2-hydroxyalkyl derivatives of aminoglycoside antibiotics” (Pfizer Inc., priority 1974, dated 1980)
